Data as given in ChEMBL document CHEMBL3112555, “Danshen diversity defeating dementia” (Bioorg Med Chem Lett, 2014).

Key:
Conditions in all cases: in vivo
[1] = Bioavailability in rat at 100 mg/kg, ip; type: ADME, organism-based
[2] = Oral bioavailability in rat at 100 mg/kg; type: ADME, organism-based
[3] = Bioavailability in beagle dog; type: ADME, organism-based, Canis lupus familiaris

Row | bioavailability [3] | Structure (SMILES) | bioavailability [1] | bioavailability [2]
1 | – | C[C@H]1COC2=C1C(=O)C(=O)c1c2ccc2c1CCCC2(C)C [CRYPTOTANSHINONE] | 10.6% | 2.1%
2 | 1.47% | O=C(/C=C/c1ccc(O)c(O)c1/C=C/c1ccc(O)c(O)c1)O[C@H](Cc1ccc(O)c(O)c1)C(=O)O [SALVIANOLIC ACID A] | – | –
